# Test results from a melting point compilation (Tetko et al.; mined from patent text by program, amines drawn as free bases though some values may be those of a salt).
row,melting point [°C],Structure (SMILES)
1,119 to 122,O=S1CCc2nn(-c3ccc(Cl)cc3F)c(Cl)c2C1 (stereo unspecified)
2,176,O=C(O)C(=O)c1cc2ccccc2s1
3,205 to 209,CCOC(=O)CNC(=O)c1ccc(O)cc1
4,99.5 to 101,C#CCOC(=O)CCC(C)(c1ccc(O)cc1)c1ccc(O)cc1
5,282 to 284,Cc1ccc(S(=O)(=O)N2CCCC(S(=O)(=O)c3cccc(Cl)c3)C2)cc1 (stereo unspecified)
6,68 to 70,O=C(c1ccc2c(c1)OCCO2)c1cc2ccccc2o1
7,139,Clc1cccc2c3c([nH]c12)-c1ccccc1C3
8,128,O=C(O)CCC(NC(=O)c1ccccc1)C(=O)NC(c1ccccc1)c1ccccc1 (stereo unspecified)
9,290,CCCCc1nc2ccc(C(=O)O)cc2n1Cc1ccc(C(=O)O)cc1
10,172 to 174,CCc1cn(C2CC(O)C(CO)O2)c(=O)nc1NC(=O)c1ccccc1 (stereo unspecified)
11,141 to 143,O=C(O)C(=O)c1ccc(OCC(=O)c2cccc3ccccc23)cc1
12,132 to 134,C[N+]1([O-])CC(c2ccccn2)C(=O)c2ccccc21 (stereo unspecified)
13,148 to 149,CCOc1cc(/C(=C\C#N)c2ccc(NC(=O)OC)c(OC)c2)ccc1OC
14,205 to 206,CCn1cc(CN(C(=O)C2CCc3c(O)cccc32)c2ccc(C(C)C)cc2)cn1 (stereo unspecified)
15,201 to 203,CC(=O)Oc1ccc2c(c1)C(=O)NC(C(Cl)(Cl)Cl)O2 (stereo unspecified)
16,146,COc1cccc(OC)c1-c1ccc(C[C@H](NC(=O)c2c(Cl)cc(-c3cnccn3)cc2Cl)C(=O)O)cc1
17,133 to 135,Cc1cc(Cl)ccc1-c1c(O)c(C)c(-c2ccccn2)oc1=O
18,168,CC(C)(C)Oc1ccc(C(=O)N[C@H]2CC[C@H](CCN3CCN(c4nccc5c4OCC5)CC3)CC2)cc1
19,195 to 198,Cc1nc2cccc(OCC(C)(C)NC(=O)c3ccncc3)c2c(N)c1C(=O)O

row,melting point [°C],Structure (SMILES)
1,121 to 124,CCCc1c(O)c(C(C)=O)cc(Cl)c1OCCCOc1ccc2ccc(OCC(=O)OC)cc2c1C(C)=O
2,129 to 131,COC(=O)C1=C(C)NC(C)=C(C(=O)OCCCl)C1c1cccc([N+](=O)[O-])c1 (stereo unspecified)
3,160 to 161,CNC(=O)C1OC1C(=O)c1ccc(Cl)cc1 (stereo unspecified)
4,175 to 177,CCOC(=O)c1c(C)nc2ccn(-c3ccc(Cl)cc3)n2c1=O
5,134 to 135,NNC(=O)c1ccccc1Nc1cccc(C(F)(F)F)c1
6,71 to 73,COc1ccc2cc([C@H](C)C(=O)OCC(=O)N(C)CC(=O)OCCO[N+](=O)[O-])ccc2c1
7,65 to 67,CC(=O)Nc1ccc(OC(F)F)c(OC(F)F)c1
8,192,CN1C(=O)CC[C@]2(C)c3ccc(-c4ccc(Cl)cc4)cc3CC[C@@H]12
9,106 to 107,Clc1ccc2c(c1)C(Br)Cn1cccc1S2 (stereo unspecified)
10,186 to 188,Cn1cc(C(=O)NCc2ccc(Cl)cc2)c(=O)c2cc(C#CCO)cc(F)c21
11,52,CN1CCC(C(=O)NO)(S(=O)(=O)c2ccc(Oc3ccc(Cl)cc3)cc2)CC1
12,88 to 90,COc1ccc(OCC(=O)c2ccccc2)c([N+](=O)[O-])c1
13,256 to 259,Cc1cccc(Nc2c([N+](=O)[O-])cc(C(=O)O)cc2S(N)(=O)=O)c1
14,148 to 152,Cc1nc(C(F)(F)F)c(C(=O)Nc2ccccc2-c2cc(F)c(F)c(F)c2)s1
15,76 to 77,O=C(OC1COCCC1=O)c1ccccc1 (stereo unspecified)
16,164 to 165,CC(=O)Nc1cccc(OCC(O)CNCCOc2ccc(C(N)=O)cc2)c1 (stereo unspecified)
17,162,CN(CC(=O)c1ccc(N(C)C)cc1)Cc1cc2c(=O)c(C(=O)NCc3ccc(Cl)cc3)cn(C)c2s1
18,153,CP(C)(=O)C1CC(c2ccccc2)=NO1 (stereo unspecified)
19,149 to 151,O=C(O)c1cc(-c2ncc(C(F)(F)F)cc2Cl)ccc1Cl

# Second part, the molecule before the results:
row,Structure (SMILES),melting point [°C]
1,CCc1c(N)c(C(N)=O)nn1CCOC,131
2,O=C1Nc2ccc(Cl)cc2C(C#CC2CC2)(C(F)(F)F)CN1C1CC1 (stereo unspecified),195 to 196
3,O=C1c2c(O)ccc(O)c2C(=O)c2c(NCCNCCO)ccc(NCCNCCO)c21,175 to 177
4,N#Cc1nn(-c2c(Cl)cc(OC(F)(F)F)cc2Cl)c(N)c1I,150
5,COC1(c2ccc(Sc3ccc4c(c3)CCC(=S)N4C)s2)CCOCC1,100 to 102
6,Clc1ncnc(Cl)c1C1OCCO1,108 to 110
7,CN=C(N)Nc1nc(CSCCNC2=NS(=O)N=C2N)cs1 (stereo unspecified),86 to 91
8,NC(CN1C(=O)C2(COc3cc4c(cc32)OCO4)c2c(Cl)cccc21)=NO (stereo unspecified),180 to 185
9,COc1ccccc1-c1ccc2cnc(Nc3ccc(OCCN4CCOCC4)cc3)nn12,133 to 135
10,COc1ccc2[nH]c(SCc3nccc(N4CCOCC4)c3F)nc2c1,121 to 123
11,CC(C)(C)OC(=O)Oc1ccc(C(C(=O)OC(c2ccccc2)c2ccccc2)N2CC(NC(=O)OCc3ccccc3)C2=O)cc1 (stereo unspecified),153 to 154
12,C[C@@H]1N=C(c2ccccc2F)c2c(ccc(N)c2Cl)N(C)C1=O,222 to 226
13,CCOC(=O)c1sccc1S(N)(=O)=O,136
14,CCCCCCC/C=C/C(=O)NCC,38 to 40
15,Cc1ccc2c(n1)Nc1cc(C)c(C)cc1N(C)C2=O,217 to 219
16,Cc1cc(C)cc(CNc2c(NC(C)(C)C)c(=O)c2=O)c1,246 to 248
17,Nc1ccc(CC(=O)Nc2ccc(Nc3ccccc3)cc2)cc1,162 to 163
18,Nc1cc(N2CCOCC2)cc(C(F)(F)F)c1,96 to 97
19,CCCCCCCCCCCC#Cc1cnccc1C=CC(=O)O,177 to 178
20,CC(C)(C)c1ccc(CN(CCOc2cccc(N)c2N)C(=O)C(F)(F)F)cc1,72 to 74
21,O=C1Cc2c([nH]c3ccc([N+](=O)[O-])cc23)-c2cc(Br)ccc2N1,> 330

row,Structure (SMILES),melting point [°C]
1,CCn1cc(C(=O)O)c(=O)c2cc(F)c(C3NCC4CCC3N4C)c(F)c21 (stereo unspecified),184 to 187
2,CCOC(=O)c1cc(C#N)c(C)nc1N1CCCCC1,72 to 74
3,CC(CS)C(=O)N1C(=O)CC[C@H]1C(=O)O (stereo partly specified),101 to 108
4,Cc1cc(C(O)(c2ccc(OC(F)(F)F)cc2)C(F)(F)F)ccc1N (stereo unspecified),127 to 128
5,CN(C(=O)c1cc2ccccc2[nH]1)C1N=C(c2ccccc2)c2ccccc2NC1=O (racemic),287 to 288
6,Clc1ccc2nc(CN3CCN(c4ncccn4)CC3)cn2c1,114 to 115
7,Cc1ccccc1Nc1nc(N2CCCC2)nc2ccccc12,152 to 154
8,COc1cc(OCCCCN2CCCN(CCCCOc3cc(OC)c(OC)c(OC)c3)CC2)cc(OC)c1OC,124 to 126
9,CC(C#N)CCC(=O)O (stereo unspecified),31.9 to 32.6
10,Cn1c(Cl)c(Cl)c(C(=O)c2cc(C(C)(C)C)c(O)c(C(C)(C)C)c2)c1Cl,155 to 156
11,Cc1noc(NS(=O)(=O)c2ccccc2-c2ccc(-c3ncco3)cc2CN2CCc3ccccc3C2=O)c1C,127 to 135
12,Oc1ncnc2c1c(Nc1cccnc1)nn2Cc1ccccc1,150 to 160
13,NC(=O)CN1CCN(c2ccc3c(c2)N2CCN=C2C(c2ccccc2)=[N+]3[O-])CC1,225 to 227
14,Cn1ncc(/C=C/C(=O)Nc2ccc(Cc3nc4c(s3)CCCC4)cc2)c1-c1ccc(F)cc1,205 to 206
15,FC(F)(F)CSc1nc2cc(Cl)ccc2[nH]1,127 to 129
16,NN1CCN(CC(O)c2c[nH]c3ccccc23)CC1 (stereo unspecified),174 to 177
17,OC(CCN1CC=C(c2ccc(Cl)cc2)CC1)c1ccc(Cl)cc1Cl (stereo unspecified),96 to 98
18,O=C1c2ccccc2C(=O)c2sc(-c3ccc(Br)o3)nc21,> 260
19,CCOC(=O)CC[C@H](NC(=O)Oc1ccc(CCCCc2c(N)nc(N)nc2O)s1)C(=O)OCC,96 to 98
20,COc1cc(CC(=O)c2c(O)c3cccnc3n(-c3ccccc3)c2=O)cc(OC)c1,170 to 171
21,COC(C)(C)C#Cc1ncn2c1CN(C)C(=O)c1cc(F)ccc1-2,149 to 150

row,Structure (SMILES),melting point [°C]
1,COc1cc2c(cc1-c1cccc(F)n1)-c1c(-c3cncs3)c3c(n1CC2)C(=O)N(C(C)(C)C)CCOC3,232 to 234
2,CCS(=O)(=O)/C=C/c1ccc2[nH]cc(C3CCN(C)CC3)c2c1,98 to 102
3,COc1ccc(-c2nc3ccc(C(C)(C)CNS(C)(=O)=O)cc3[nH]2)cc1,146 to 148
4,CSc1cc(C)nc(O)n1,165
5,C=C(C)C(=O)OCCCCCCCCCCCOC(=O)c1cc(OC(=O)c2ccc(/C=C/C(=O)OC)cc2)ccc1O,51
6,O=C1NCCc2[nH]c3ccccc3c21,212 to 215
7,COCCOCOc1c(C(C)(C)C)cc(C(=N)NN)cc1C(C)(C)C,133
8,COc1ccc2cc3c(=O)c(C#N)c[nH]c3cc2c1,> 265
9,CCCOc1nc2sc(Cl)cc2c(=O)n1CCC,62 to 65
10,Cc1ccc(S(=O)(=O)NCCCCCCCCCCCn2c3c(c4ccccc4c2=O)C(=O)c2ccccc2-3)cc1,170 to 172
11,O=c1[nH]nc(CCCN2CCN(c3cccc(Cl)c3)CC2)n1CCOc1ccccc1,150 to 153
12,C=C(C)C(=O)NCC(C)OC(=O)C(Br)(Br)Br (stereo unspecified),104 to 105
13,c1ccc(CN(Cc2ccccc2)c2ccc3sccc3c2)cc1,114 to 117
14,Cn1ncnc1COc1nn2c(-c3ccccc3Cl)nncc2c1-c1ccccc1F,155 to 157
15,Cn1cc(C2=C(c3c4n(c5ccccc35)CC(CCO)CC4)C(=O)NC2=O)c2ccccc21 (stereo unspecified),236 to 238
16,Cc1cc(S)n2nc(C(=O)NN)nc2n1,221 to 222
17,NCCN1CCC(Nc2nc3cncnc3n2Cc2ccc(F)cc2)CC1,146
18,COc1cc(OC)nc(Sc2c(NS(=O)(=O)CC#N)nc(C)n2C)n1,223 to 225
19,Cc1nc2c(ncn2COCCO)c(=S)[nH]1,190 to 193
20,CCCCCCCCSCN1CN(CSCCCCCCCC)c2cccc3cccc1c23,52 to 56
21,O=NCNC1=Nc2ccc([N+](=O)[O-])cc2C(c2ccccc2Cl)=NC1,164 to 166
